pKi: −log10 of the molar value.
Experiments:
[1] = tested on: uterus; assay: Uterotropic assay; details: 10 mg/kg/day orally, 3 days
Method: Statistical differences among groups were evaluated by one-way ANOVA. Rats were treated for 3 consecutive days and then sacrificed 24 h after the last dose. The body of the uterus was cut just above its junction with the cervix and at the junction of the uterine horns with the ovaries. The uterus was weighed with and without intrauterine fluid. Statistical comparisons were made between the weights of empty uteri.

[2] = tested on: Rat Aortic Smooth Muscle Cells (RASMC); assay: RASMC cell proliferation assay (WST-1); details: 10 μM and 30 μM
[3] = target: ERα ligand binding domain (Homo sapiens (Human), UniProt P03372); assay: Competitive [3H]-estradiol radioligand binding, ERα (Example 21)
Method: (§1) ER binding affinity was determined via one of the following methods:
(§2) Briefly, the incubation mixture was filtered through a high affinity protein binding filter, and washed several times to remove any unbound radioactivity. The filter plate was air dried and sealed on the bottom.
(§3) Following incubation, plates were harvested onto GF/B filters and radioactivity was measured with a TopCount NXT (PerkinElmer). Nonspecific binding was subtracted from total binding to yield specific binding.

[4] = target: ERβ ligand binding domain (Homo sapiens (Human), UniProt Q92731); assay: Competitive [3H]-estradiol radioligand binding, ERβ (Example 21); details: ratio between the binding constants of ER-α and ER-β
Method: as §1, §2, §3

[5] = target: ER-α (Rattus norvegicus (Rat), UniProt P06211); format: cell-based; details: 100 nM NRBA compared to 1 nM estradiol
Method: COS or 293 cells were plated in DME without phenol red+10% cs FBS at 90,000 cells per well in 24 well plates, and were transfected with 0.25 μg of the vector “ERE-LUC”, where a firefly luciferase gene was driven by two estrogen responsive elements and 0.02 μg of the control CMV-LUC, Renilla where a luciferase gene was driven by a CMV promoter. […] All the receptors were cloned from rat tissue into the PCR3.1 vector backbone. Twenty four hours post transfection, cells were treated with compounds of this invention, estrogen, DHT, and other NRBAs or combinations thereof. Cells were harvested 48 hrs after transfection, and assayed for firefly and Renilla luciferase activity.

[6] = tested on: paw edema; assay: Carrageenan-induced paw edema (acute inflammation model); format: in vivo; details: per-oral, 1 hr prior to Carrageenan challenge; measured 4 hours post-Carrageenan injection
Method: FIG. 14 depicts the effect of 12b on the edema volume which was induced by Carrageenan (i.e. Carrageenan-induce raw paw edema as an acute inflammation model).
To determine the anti-inflammatory effects of ER-β NRBAs in vivo, animal paws were injected with carrageenan, which elicits an acute local inflammatory response. Per-oral treatment of 12b.

[7] = tested on: LNCaP prostate cancer cells; assay: LNCaP prostate cancer cell proliferation (3H thymidine incorporation); format: cell-based; details: treated for 6 days, FIG. 21
Method: (§4) The effects of treatment of an ER-β selective NRBA of this invention on cancer cell proliferation was examined using LNCaP prostate cancer cells and C-26 colon cancer cells. LNCaP or C-26 cells were plated in growth medium in 24 well and 6 well plates, respectively. LNCaP cells were treated for 6 days and C-26 cells were treated for 3 days at the indicated concentration. ^3H thymidine incorporation was measured at the end of treatment as an indicator of cell proliferation.

[8] = tested on: C-26 colon cancer cells; assay: C-26 colon cancer cell proliferation (3H thymidine incorporation); format: cell-based; details: treated for 3 days, FIG. 22
Method: as §4

[9] = tested on: LNCaP cells and human prostate stromal cells xenograft; assay: LNCaP-stromal cell xenograft tumor growth; format: in vivo, nude mice; details: 30 mg/kg/day for 21 days, by day 21
Method: Prostate tumor xenografts were established with LNCaP cells and human prostate stromal cells in nude mice to establish the in vivo anti-proliferative effects of these ER-β NRBAs. A 4:1 ratio (based on cell number) of LNCaP:stroma cells was injected subcutaneously in nude mice and allowed to grow until they attained 100 mm^3 in volume, as measured by calipers. […] Tumor volumes were measured twice a week and percent tumor volume calculated, after 10, 14 and 21 days.

Chain of ERα ligand binding domain (P03372 whole entry, looked up, species assumed, the tested form may be a part): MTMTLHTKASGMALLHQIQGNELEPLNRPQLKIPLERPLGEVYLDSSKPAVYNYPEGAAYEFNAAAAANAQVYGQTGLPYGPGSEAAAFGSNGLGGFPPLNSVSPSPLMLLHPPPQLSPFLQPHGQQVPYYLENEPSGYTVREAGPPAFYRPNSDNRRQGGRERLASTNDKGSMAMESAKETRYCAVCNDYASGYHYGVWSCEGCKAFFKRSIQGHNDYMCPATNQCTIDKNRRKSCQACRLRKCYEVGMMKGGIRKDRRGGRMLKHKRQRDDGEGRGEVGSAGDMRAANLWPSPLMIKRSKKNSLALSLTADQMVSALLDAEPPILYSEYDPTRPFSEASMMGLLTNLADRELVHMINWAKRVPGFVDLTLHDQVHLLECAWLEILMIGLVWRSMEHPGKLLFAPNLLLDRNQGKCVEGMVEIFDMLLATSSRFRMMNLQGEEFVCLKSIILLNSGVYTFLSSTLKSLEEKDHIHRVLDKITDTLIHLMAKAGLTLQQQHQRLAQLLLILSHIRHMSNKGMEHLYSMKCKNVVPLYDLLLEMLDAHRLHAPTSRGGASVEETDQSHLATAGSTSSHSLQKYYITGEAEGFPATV
Chain of ERβ ligand binding domain (Q92731 264-498, species assumed): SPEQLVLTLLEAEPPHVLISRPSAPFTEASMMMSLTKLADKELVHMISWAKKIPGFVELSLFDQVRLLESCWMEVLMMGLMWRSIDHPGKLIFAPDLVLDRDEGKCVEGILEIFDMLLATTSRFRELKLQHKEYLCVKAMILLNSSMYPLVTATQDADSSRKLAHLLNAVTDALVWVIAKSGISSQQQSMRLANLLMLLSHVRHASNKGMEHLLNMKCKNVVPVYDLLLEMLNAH

CC/C(=C(\c1ccccc1)c1ccc(OCCN(C)C)cc1)c1ccccc1 [Tamoxifen, tamoxifen]
uterine growth / uterine weight [1]: stimulated the proliferation of uterus significantly
cell numbers compared to day 0 [2]: toxicity

O=c1c2ccc(O)cc2c(Br)cn1-c1ccc(O)cc1 [Compound 12b, 4-bromo-6-hydroxy-2-(4-hydroxyphenyl)-isoquinolin-1(2H)-one]
pKi [3]: 6.00
Ki Ratio (ER-α/ER-β) [4]: 20
Estradiol activity at 100 nM, ER-α [5]: 31.2%
reduction in paw edema [6]: 53%
growth of LNCaP prostate cancer cells [7]: significantly inhibited the growth
growth of C-26 colon cancer cells [8]: significantly inhibited the growth
tumor growth (percent tumor volume) [9]: inhibited the growth of tumor significantly

From US9623021B2, “Nuclear receptor binding agents” (GTX, Inc., priority 2007, dated 2017)
